Measurements taken from patent US20260258048A1, “LACTAM-CONTAINING IMIDAZOPYRIDAZINE IL-17 INHIBITOR COMPOUNDS” (Janssen Pharmaceutica NV, priority 2023, published 2026).

Legend:
[1] = biological target: IL-17A(FLAG-tagged): IL-17RA(His-tagged) (Homo sapiens, UniProt Q16552, K93Q); test: IL-17A(FLAG-tagged): IL-17RA(His-tagged) binding disruption Eu-HTRF assay
Method in brief: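 Compound (22-point, 2-fold series) was pre-incubated 1 h at rt with FLAG-IL-17A, added as a 2× solution (1 μM). A 2× mix of C-terminal 10×His IL-17RA, Eu-anti-FLAG donor and D2-anti-His acceptor in PBS/0.01% Triton X-100/200 mM KF was then added for 2 h at rt. The 665/615 nm ratio was fitted to one-site competition for IC50.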

[2] = test system: IL-17A-induced G-CSF production in human normal keratinocyte (NHK); test: NHK assay: IL-17A-induced G-CSF production in normal human keratinocytes; format: cell-based; conditions: Homo sapiens, Keratinocyte, 24 h, IL-17A 5 ng/mL
Method in brief: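 Adult keratinocytes at 3000-4000 cells/well; recombinant human IL-17A pre-incubated 1 h at rt with titrated compound, then added to cells (final 5 ng/mL IL-17A, 0.2% DMSO, 5% FBS) for 24 h at 37 °C. Supernatant G-CSF quantified by HTRF against a standard curve to give IC50; viability checked by CellTiter-Glo versus DMSO.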

[3] = class of the average IC50 where tested more than once

UniProt Q16552, sequence (Q16552 with tags, fused parts or gaps K93Q): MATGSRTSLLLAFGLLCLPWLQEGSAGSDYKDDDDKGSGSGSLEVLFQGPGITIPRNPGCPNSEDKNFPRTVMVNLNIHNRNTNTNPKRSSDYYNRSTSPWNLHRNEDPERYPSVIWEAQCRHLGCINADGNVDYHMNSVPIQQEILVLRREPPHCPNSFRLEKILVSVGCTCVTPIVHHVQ

| Structure (SMILES) | IC50 [1, 3] | IC50 ([1]; value in brackets, Table 4) | potency increase in the HTRF IC50 when compared to its C-3 epimer ([1]; (S)-configuration on C-3 (cis) vs (R)-epimer (trans): Example 51 vs 52, Example 59 vs 60) | IC50 [2, 3] | IC50 ([2]; value in brackets, Table 4) |
| --- | --- | --- | --- | --- | --- |
| CC(C)n1nccc1C(=O)N[C@H](c1cn2ncc(C[C@@H]3C[C@@H](C(F)(F)F)NC3=O)cc2n1)C1CCC(F)(F)CC1 [Example 52, N—((S)-(4,4-Difluorocyclohexyl)(7-(((3R,5S)-2-oxo-5-(trifluoromethyl)pyrrolidin-3-yl)methyl)imidazo[1,2-b]pyridazin-2-yl)methyl)-1-isopropyl-1H-pyrazole-5-carboxamide] | 400 to 4000 nM | 2450 nM |  | 400 to 4000 nM | 2830 nM |
| O=C(N[C@H](c1cn2ncc(C[C@H]3C[C@@H](C(F)(F)F)NC3=O)cc2n1)C1CCC(F)(F)CC1)c1nonc1C1CC1 [Example 59, 4-Cyclopropyl-N—[(S)-(4,4-difluorocyclohexyl)-[7-[[(3S,5S)-2-oxo-5-(trifluoromethyl)pyrrolidin-3-yl]methyl]imidazo[1,2-b]pyridazin-2-yl]methyl]-1,2,5-oxadiazole-3-carboxamide] | < 400 nM | 14 nM | more than 80 fold | < 400 nM | 7.8 nM |
| O=C(N[C@H](c1cn2ncc(C[C@@H]3C[C@@H](C(F)(F)F)NC3=O)cc2n1)C1CCC(F)(F)CC1)c1nonc1C1CC1 [Example 60, 4-Cyclopropyl-N—[(S)-(4,4-difluorocyclohexyl)-[7-[[(3R,5S)-2-oxo-5-(trifluoromethyl)pyrrolidin-3-yl]methyl]imidazo[1,2-b]pyridazin-2-yl]methyl]-1,2,5-oxadiazole-3-carboxamide] | 400 to 4000 nM | 1140 nM |  | > 4000 nM | > 4000 nM |
| O=C(N[C@H](c1cn2ncc(C(O)C3CC(C(F)(F)F)NC3=O)cc2n1)C1CCC(F)(F)CC1)c1nonc1C1CC1 (stereo partly drawn) [Example 61, 4-Cyclopropyl-N—[(S)-(4,4-difluorocyclohexyl)-[7-[hydroxy-[2-oxo-5-(trifluoromethyl)pyrrolidin-3-yl]methyl]imidazo[1,2-b]pyridazin-2-yl]methyl]-1,2,5-oxadiazole-3-carboxamide] | 400 to 4000 nM |  |  | < 400 nM |  |

Now from value to compound, other results behind:

| IC50 [1, 3] | IC50 ([1]; value in brackets, Table 4) | potency increase in the HTRF IC50 when compared to its C-3 epimer ([1]; (S)-configuration on C-3 (cis) vs (R)-epimer (trans): Example 51 vs 52, Example 59 vs 60) | Structure (SMILES) | IC50 [2, 3] | IC50 ([2]; value in brackets, Table 4) |
| --- | --- | --- | --- | --- | --- |
| 400 to 4000 nM |  |  | O=C(N[C@H](c1cn2ncc(CC3CC4(CC4)NC3=O)cc2n1)C1CCC(F)(F)CC1)c1nonc1C1CC1 (stereo partly drawn) [Example 62, 4-Cyclopropyl-N-((1S)-(4,4-difluorocyclohexyl)(7-((5-oxo-4-azaspiro[2.4]heptan-6-yl)methyl)imidazo[1,2-b]pyridazin-2-yl)methyl)-1,2,5-oxadiazole-3-carboxamide] | > 4000 nM |  |
| < 400 nM |  |  | O=C(N[C@H](c1cn2ncc([C@@H](O)[C@H]3C[C@@H](C(F)(F)F)NC3=O)cc2n1)C1CCC(F)(F)CC1)c1nonc1C1CC1 [Example 74] | < 400 nM |  |
| > 4000 nM |  |  | O=C(N[C@H](c1cn2ncc(CC3CC4(COC4)NC3=O)cc2n1)C1CCC(F)(F)CC1)c1nonc1C1CC1 (stereo partly drawn) [Example 98, 4-Cyclopropyl-N-((1S)-(4,4-difluorocyclohexyl)(7-((6-oxo-2-oxa-5-azaspiro[3.4]octan-7-yl)methyl)imidazo[1,2-b]pyridazin-2-yl)methyl)-1,2,5-oxadiazole-3-carboxamide] | > 4000 nM |  |
